The assay relates to isolated rat bladder strips. Put plainly: Inhibition of contractions of isolated rat bladder strips (KCl-enhanced contractile activity). Particulars: 15 mM KCl added; for IC50: 0.5 h, isolated Sprague-Dawley rat bladder strips, 30 min challenge per concentration, read-out: IC50 (concentration required to elicit 50% inhibition of pre-drug contractile activity); for inhibition at 3 µM / % Enhancement of Contractility @ 3 μM: isolated rat bladder strips; for inhibition at 3 µM: read-out: % Inhibition of Contractility @ 3 μM. The method, then:
The compounds of the examples were tested to determine their ability to inhibit contractions of isolated rat bladder strips. See Foster, C. D. et al. Br. J. Pharmacol. 97:281-291, 1989; and Fujii, K. et al. Br. J. Pharmacol. 99:779-785, 1990. Malmgren, A. et al. J. Urol. 143:828-834, 1990, each of which are incorporated herein by reference in its entirety.
Male Sprague-Dawley rats (150-200 g) were obtained from ACE animal suppliers. Animals were allowed free access to food and water.
Animals were euthanized by CO2 asphyxiation followed by a bilateral thoracotomy. The bladder was removed into warm (37 deg. C.) physiological salt solution (PSS) of the following composition (mM): NaCl, 118.4; KCl, 4.7; CaCl2, 2.5; MgSO4.7H2O, 1.2; NaHCO3, 24.9; KH2PO4, 1.2; glucose, 11.1; EDTA, 0.023; gassed with 95% O2/5% CO2; pH 7.4. The bladder was opened and then cut into strips 1-2 mm in width and 7-10 mm in length. The strips were subsequently suspended in a 10 ml tissue bath under an initial resting tension of 1.5 g. The strips were held in place by two surgical clips one of which was attached to a fixed hook while the other was attached to an isometric force transducer. […] The carbachol was then washed out and the tissue allowed to relax to its resting level of activity. Following a further thirty minute period of recovery an additional 15 mM KCl was introduced into the tissue bath. This increase in KCl concentration results in a large increase in the amplitude of spontaneous contractions (and initiation of contractions in previously quiescent strips) superimposed upon a small increase in basal tone. Following stabilization of this enhanced level of contractile activity, incremental increases in the concentration of test compound or vehicle were introduced into the tissue bath. Contractile activity was measured for each compound or vehicle concentration during the last minute of a thirty minute challenge.
Isometric force developed by the bladder strips was measured using a force transducer and recorded on a polygraph. Contractile activity was assessed by measuring either the average amplitude of the contractions (baseline to peak force) occurring during a one min period or, preferably, by integrating the contractile activity with respect to time (one minute measuring period).
The percentage inhibition of contractile activity evoked by each concentration of a given test compounds was used to generate a concentration-response curve. The concentration of test compound required to elicit 50% inhibition of pre-drug contractile activity (IC50 concentration) was calculated from this concentration-response curve. The maximum percentage inhibition of contractile activity evoked by a test compound was also recorded for concentrations of test compound <- or 30 uM.

`O=C(Cc1ccccc1)Nc1cc2c3c(c1)c1c(n3CC2)CCCCC1` [Example 13, N-4,5,8,9,10,11-hexahydro-7H-cyclohepta[b]pyrrolo[3,2,1-hi]indol-2-yl-2-phenylacetamide]: the IC50 fell in the range of 500 to 600 nM.
Same read-out and setting: with `CC(=O)Nc1cc2c3c(c1)c1c(n3CC2)CCCCC1` [Example 11, N-4,5,8,9,10,11-hexahydro-7H-cyclohepta[b]pyrrolo[3,2,1-hi]indol-2-ylacetamide] the figure was 650 to 700 nM.
`CC(C)(C)CC(=O)Nc1cc2c3c(c1)c1c(n3CC2)CCCCCC1` [Example 21, 3,3-dimethyl-N-4,5,7,8,9,10,11,12-octahydrocycloocta[b]pyrrolo[3,2,1-hi]indol-2-ylbutanamide]: the IC50 lay in the range of 160 to 700 nM.
The same measure, in the same setting: then `CC(C)CC(=O)Nc1cc2c3c(c1)c1c(n3CCC2)CCCCC1` [Example 6, N-5,6,9,10,11,12-hexahydro-4H,8H-cyclohepta[4,5]pyrrolo[3,2,1-ij]quinolin-2-yl-3-methylbutanamide], with 80 to 350 nM; and `CCCCC(=O)Nc1cc2c3c(c1)c1c(n3CCC2)CCCCC1` [Example 9, N-5,6,9,10,11,12-hexahydro-4H,8H-cyclohepta[4,5]pyrrolo[3,2,1-ij]quinolin-2-ylpentanamide], with 50 to 1000 nM.
Same read-out and setting: with `CC(=O)Nc1cc2c3c(c1)c1c(n3CCC2)CCCC1` [Example 19, N-5,6,8,9,10,11-hexahydro-4H-pyrido[3,2,1-jk]carbazol-2-ylacetamide] the figure was 2000 to 3000 nM; with `O=C(CCC1CCCC1)Nc1cc2c3c(c1)c1c(n3CC2)CCCCC1` [Example 15, 3-cyclopentyl-N-4,5,8,9,10,11-hexahydro-7H-cyclohepta[b]pyrrolo[3,2,1-hi]indol-2-ylpropanamide], 300 to 1200 nM; with `CCCCCCC(=O)Nc1cc2c3c(c1)c1c(n3CC2)CCCCCC1` [Example 22, N-4,5,7,8,9,10,11,12-octahydrocycloocta[b]pyrrolo[3,2,1-hi]indol-2-ylheptanamide], 800 to 1000 nM.
One may read the inhibition as the share of the control response that was lost under treatment. On to `O=C(CCc1ccccc1)Nc1cc2c3c(c1)c1c(n3CCC2)CCCCC1` [Example 4, N-5,6,9,10,11,12-hexahydro-4H,8H-cyclohepta[4,5]pyrrolo[3,2,1-ij]quinolin-2-yl-3-phenylpropanamide], for which the inhibition at 3 µM is 5 to 20%.
`CC(C)(C)CC(=O)Nc1cc2c3c(c1)c1c(n3CCC2)CCCC1` [Example 16, N-5,6,8,9,10,11-hexahydro-4H-pyrido[3,2,1-jk]carbazol-2-yl-3,3-dimethylbutanamide]: the “% Enhancement of Contractility @ 3 μM” value is given as 80-100%.
Consider `CCCCC(=O)Nc1cc2c3c(c1)c1c(n3CC2)CCCCC1` [Example 12, N-4,5,8,9,10,11-hexahydro-7H-cyclohepta[b]pyrrolo[3,2,1-hi]indol-2-ylpentanamide], for which the IC50 was 700 to 1000 nM.
As to `CC(C)(C)CC(=O)Nc1cc2c3c(c1)c1c(n3CCC2)C(=O)CCCC1` [Example 23, 3,3-dimethyl-N-(8-oxo-5,6,9,10,11,12-hexahydro-4H,8H-cyclohepta[4,5]pyrrolo[3,2,1-ij]quinolin-2-yl)butanamide], the inhibition at 3 µM is 25 to 50%.
Consider `O=C(Nc1cc2c3c(c1)c1c(n3CCC2)CCCCC1)c1cccs1` [Example 5, N-5,6,9,10,11,12-hexahydro-4H,8H-cyclohepta[4,5]pyrrolo[3,2,1-ij]quinolin-2-ylthiophene-2-carboxamide], for which the “% Enhancement of Contractility @ 3 μM” value is listed as 60-90%.
For `CC(C)CC(=O)Nc1cc2c3c(c1)c1c(n3CCC2)CCCC1` [Example 18, N-5,6,8,9,10,11-hexahydro-4H-pyrido[3,2,1-jk]carbazol-2-yl-3-methylbutanamide], the IC50 was in the range of 500 to 550 nM.
Regarding `CCCCCC(=O)Nc1cc2c3c(c1)c1c(n3CCC2)CCCC1` [Example 17, N-5,6,8,9,10,11-hexahydro-4H-pyrido[3,2,1-jk]carbazol-2-ylhexanamide], the IC50 was in the range of 400 to 800 nM.
Same read-out and setting: with `CC(C)(C)CC(=O)Nc1cc2c3c(c1)c1c(n3CCC2)CCCCC1` [Example 1, N-5,6,9,10,11,12-hexahydro-4H,8H-cyclohepta[4,5]pyrrolo[3,2,1-ij]quinolin-2-yl-3,3-dimethylbutanamide] the figure was 30 to 70 nM.
Consider `CC(C)(C)C(=O)Nc1cc2c3c(c1)c1c(n3CCC2)CCCCC1` [Example 2, N-5,6,9,10,11,12-hexahydro-4H,8H-cyclohepta[4,5]pyrrolo[3,2,1-ij]quinolin-2-yl-2,2-dimethylpropanamide], for which the “% Enhancement of Contractility @ 3 μM” value is recorded as 20-100%.
Take `CC(C)CC(=O)Nc1cc2c3c(c1)c1c(n3CC2)CCCCC1` [Example 14, N-4,5,8,9,10,11-hexahydro-7H-cyclohepta[b]pyrrolo[3,2,1-hi]indol-2-yl-3-methylbutanamide]: the IC50 fell in the range of 800 to 1000 nM.
Same read-out and setting: then `CCCCCC(=O)Nc1cc2c3c(c1)c1c(n3CCC2)CCCCC1` [Example 3, N-5,6,9,10,11,12-hexahydro-4H,8H-cyclohepta[4,5]pyrrolo[3,2,1-ij]quinolin-2-ylhexanamide], with 400 to 2600 nM; and `CC(C)(C)CC(=O)Nc1cc2c3c(c1)c1c(n3CC2)CCCCC1` [Example 10, N-4,5,8,9,10,11-hexahydro-7H-cyclohepta[b]pyrrolo[3,2,1-hi]indol-2-yl-3,3-dimethylbutanamide], with 150 to 350 nM; and `CCCCCC(=O)Nc1cc2c3c(c1)c1c(n3CC2)CCCCCC1` [Example 20, N-4,5,7,8,9,10,11,12-octahydrocycloocta[b]pyrrolo[3,2,1-hi]indol-2-ylhexanamide], with 80 to 550 nM.
As for `O=C(Nc1cc2c3c(c1)c1c(n3CCC2)CCCCC1)C1CCCCC1` [Example 8, N-5,6,9,10,11,12-hexahydro-4H,8H-cyclohepta[4,5]pyrrolo[3,2,1-ij]quinolin-2-ylcyclohexanecarboxamide], the “% Enhancement of Contractility @ 3 μM” value was 150-200%.
On to `CCC(=O)Nc1cc2c3c(c1)c1c(n3CCC2)CCCCC1` [Example 7, N-5,6,9,10,11,12-hexahydro-4H,8H-cyclohepta[4,5]pyrrolo[3,2,1-ij]quinolin-2-ylpropanamide], for which the IC50 lay in the range of 400 to 550 nM.
